Assay results as given in patent publication US9487553B2, “Boranophosphate analogues of cyclic nucleotides” (BIOLOG LIFE SCIENCE INSTITUTE FORSCHUNGSLABOR UND …, priority 2011, dated 2016).

Experiments:
[1] = molecular target: T1, PDE IV (A4B) (Homo sapiens, UniProt P27815); assay: Stability against PDE IV, HPLC; type: in vitro ADME; conditions: several days
T1 construct: Houslay lab, Glasgow/Scotland (obtained from another laboratory)
Procedure: Next, stability of the disclosed boranophosphates against PDE IV (A4B, Houslay lab, Glasgow/Scotland) was tested in similar experiments as described above.

[2] = molecular target: T2, bovine CNGA2 channels (Bos taurus, UniProt Q03041); assay: Patch-clamp of inside-out oocyte membrane patches with olfactory CNGA2 channels; type: cell-based; conditions: for current, % of its maximal value: 500 μM compound, maximal value at 500 μM cAMP, n=3; for inhibition of channel activation by cAMP: applied in the presence of cAMP; for current amplitude, % of the amplitude observed in the absence of the compound: 50 μM cAMP, 50 μM compound, n=9
T2 construct: expressed in transfected cells; host or cells: Xenopus laevis oocytes (cRNA injection; inside-out membrane patches)
T2 sequence (Q03041 1-663): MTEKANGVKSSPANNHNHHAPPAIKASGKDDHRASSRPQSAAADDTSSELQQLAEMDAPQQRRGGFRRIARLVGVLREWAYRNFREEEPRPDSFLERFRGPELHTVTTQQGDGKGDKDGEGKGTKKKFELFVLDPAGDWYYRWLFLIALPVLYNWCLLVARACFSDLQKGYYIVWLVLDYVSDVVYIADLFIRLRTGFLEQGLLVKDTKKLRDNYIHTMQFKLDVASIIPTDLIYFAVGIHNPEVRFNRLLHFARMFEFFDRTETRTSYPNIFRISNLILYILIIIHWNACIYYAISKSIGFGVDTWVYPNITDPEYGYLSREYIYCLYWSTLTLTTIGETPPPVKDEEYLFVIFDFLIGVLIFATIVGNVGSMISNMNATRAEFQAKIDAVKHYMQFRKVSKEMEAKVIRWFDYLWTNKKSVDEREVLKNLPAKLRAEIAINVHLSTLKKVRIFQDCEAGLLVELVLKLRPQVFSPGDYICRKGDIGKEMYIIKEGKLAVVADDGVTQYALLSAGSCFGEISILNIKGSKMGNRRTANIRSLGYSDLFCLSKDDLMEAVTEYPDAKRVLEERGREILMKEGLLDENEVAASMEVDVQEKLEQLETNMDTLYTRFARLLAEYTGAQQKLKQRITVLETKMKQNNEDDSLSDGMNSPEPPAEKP
From the text: Next, the effects of cyclic nucleotide boranophosphates, disclosed in this invention, on olfactory cyclic nucleotide-gated ion channels in clamps of oocyte cell membrane patches were investigated.
For the experiments, oocytes were obtained and prepared as described previously (Biskup, C. et al., Nature 446, 440-443 (2007)). In brief, oocytes were obtained by partial ovariectomy from adult females of Xenopus laevis anaesthesized with 0.3% 3-aminobenzoic acid ethyl ester (Sigma). The oocytes were treated for 60-90 min with 1.2 mg/ml collagenase (Type I, Sigma) and separated manually. 40-70 nl of a solution containing cRNA encoding bovine CNGA2 channels (accession No. X55010) was injected, and the oocytes were incubated at 18° C. in Barth medium until they were used for the experiments within 3-6 days after injection. Immediately prior to the experiments the vitelline membrane of the oocytes was removed.
Currents were recorded in inside-out patches with the patch-clamp technique. The patch pipettes were pulled from quartz tubing (outer diameter 1.0 mm, inner diameter 0.7 mm) using a laser puller (P-2000, Sutter Instrument, Novato, Calif.). The pipette resistance was 0.8-2.5 MΩ. Recording was performed with an Axopatch 200B amplifier (Molecular Devices, Sunnyvale, Calif.). All experiments were performed with the same recording solution in the bath and the pipette containing (in mM) 150 KCl, 1 EGTA, 5 HEPES. pH was adjusted to 7.4 with KOH.
Measurements were controlled and data were collected with the ISO3 setup (MFK, Niedernhausen, Germany). The sampling rate was 5 kHz (filter 2 kHz). To test for possible background channel activity, each excised patch was first exposed to a solution containing no cyclic nucleotides.
FIGS. 15 A-C depict the agonistic activity of Rp-8-Br-cAMPB on CNGA2 channels. Currents were recorded in a patch containing CNGA2 channels. The patch membrane was clamped subsequently from 0 mV to −50 mV, +50 mV and back to 0 mV. […] (C) Current measured in the presence of 500 μM Rp-8-Br-cAMPB.
FIGS. 16 A-F depict the antagonistic activity of Sp-8-Br-cAMPB on CNGA2 channels. Currents were recorded in a patch containing CNGA2 channels. The patch membrane was clamped subsequently from 0 mV to −50 mV, +50 mV and back to 0 mV.

[3] = system: PDE 1 from bovine heart; assay: Resistance towards phosphodiesterase: incubation with PDE 1 from bovine heart, HPLC
Procedure: For this purpose 0.1 μmol of Rp-8-bromoadenosine-3′,5′-cyclic boranophosphate (example 1) and Sp-8-bromoadenosine-3′,5′-cyclic boranophosphate […] dissolved in TRIS buffer pH 7.2 containing calcium chloride and calmodulin and incubated with PDE type I from bovine brain (Sigma-Aldrich) at 37° C. Activity of the enzyme was checked by hydrolysis of cyclic AMP. Stability was monitored by HPLC (RP-18, 11 Vol.-% propanol-2, 20 mM TEAF buffer, pH 6.8, 1 ml/min., UV 264 nm). […] This strategy of testing PDE performance was applied accordingly in degradation examples 10 and 11.
Thus, Rp-8-Br-cAMPB (example 1) and Sp-8-Br-cAMPS (Biolog, Bremen/Germany) were incubated with PDE 1 from bovine heart (Sigma-Aldrich) and monitored by HPLC as described above.
Rp-2′-O-Me-cAMPB (example 7) and Sp-2′-O-Me-cAMPS (Biolog, Bremen/Germany).

[4] = molecular target: protein kinase A type II alpha holoenzyme (Homo sapiens, UniProt P13861); assay: Photometric (Cook) assay with protein kinase A type II alpha holoenzyme; type: biochemical; conditions: for effect on protein kinase A type II alpha holoenzyme: photometric assay
protein kinase A type II alpha holoenzyme, sequence (P13861 whole entry): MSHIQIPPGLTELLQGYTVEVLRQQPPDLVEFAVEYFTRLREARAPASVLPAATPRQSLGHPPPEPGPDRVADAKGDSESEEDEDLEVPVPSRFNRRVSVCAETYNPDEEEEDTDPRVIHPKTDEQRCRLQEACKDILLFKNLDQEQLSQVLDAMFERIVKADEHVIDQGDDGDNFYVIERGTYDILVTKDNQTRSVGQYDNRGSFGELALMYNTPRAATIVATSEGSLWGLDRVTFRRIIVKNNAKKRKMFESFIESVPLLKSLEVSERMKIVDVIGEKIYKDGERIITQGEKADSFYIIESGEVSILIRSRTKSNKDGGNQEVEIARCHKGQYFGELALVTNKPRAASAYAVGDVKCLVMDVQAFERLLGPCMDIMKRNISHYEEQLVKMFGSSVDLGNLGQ
From the text: In another similar experiment the properties of Rp- and Sp-8-Br-cAMPB towards protein kinase A type II a were investigated in the photometric assay (Cook, P. F., Neville, M. E., Jr., Vrana, K. E., Hartl, F. T. and Roskoski, R., Jr., Biochemistry 21, 5794-5799 (1982))

[5] = system: PDE type I from bovine brain; assay: Resistance towards phosphodiesterase: incubation with PDE type I from bovine brain, HPLC
Procedure: Activity of the enzyme was checked by hydrolysis of cyclic AMP. Stability was monitored by HPLC (RP-18, 11 Vol.-% propanol-2, 20 mM TEAF buffer, pH 6.8, 1 ml/min., UV 264 nm).

T1 sequence (P27815 whole entry): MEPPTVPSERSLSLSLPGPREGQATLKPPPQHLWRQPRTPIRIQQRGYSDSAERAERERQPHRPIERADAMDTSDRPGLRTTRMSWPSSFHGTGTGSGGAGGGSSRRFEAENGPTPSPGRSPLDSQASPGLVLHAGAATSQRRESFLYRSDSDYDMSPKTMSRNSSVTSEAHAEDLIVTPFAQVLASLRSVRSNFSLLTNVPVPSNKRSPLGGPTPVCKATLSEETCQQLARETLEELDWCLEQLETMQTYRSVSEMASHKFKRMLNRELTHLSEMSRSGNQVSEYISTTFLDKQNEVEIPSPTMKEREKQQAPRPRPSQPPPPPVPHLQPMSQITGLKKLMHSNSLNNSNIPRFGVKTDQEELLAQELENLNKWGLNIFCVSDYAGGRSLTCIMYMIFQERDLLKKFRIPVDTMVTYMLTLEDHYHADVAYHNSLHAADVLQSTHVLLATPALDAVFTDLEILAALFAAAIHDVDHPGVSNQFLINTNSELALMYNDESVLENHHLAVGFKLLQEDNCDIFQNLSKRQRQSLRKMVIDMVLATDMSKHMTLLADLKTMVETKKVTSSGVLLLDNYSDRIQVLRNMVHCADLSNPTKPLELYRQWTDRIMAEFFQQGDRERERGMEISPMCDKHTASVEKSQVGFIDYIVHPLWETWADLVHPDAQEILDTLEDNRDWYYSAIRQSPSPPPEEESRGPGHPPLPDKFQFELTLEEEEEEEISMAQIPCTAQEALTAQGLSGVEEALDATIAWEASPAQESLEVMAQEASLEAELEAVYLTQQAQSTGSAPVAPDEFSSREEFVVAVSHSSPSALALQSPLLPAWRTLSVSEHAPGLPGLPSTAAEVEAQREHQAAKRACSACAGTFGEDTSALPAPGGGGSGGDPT

stability against PDE IV [1] | current, % of its maximal value ([2]; +50 mV) [%] | current, % of its maximal value ([2]; −50 mV, mean±SEM) [%] | degradation by PDE [3] | effect on protein kinase A type II alpha holoenzyme [4] | current amplitude, % of the amplitude observed in the absence of the compound ([2]; +50 mV) [%] | current amplitude, % of the amplitude observed in the absence of the compound ([2]; −50 mV) [%] | intrinsic activity on CNGA2 channels ([2]; up to 100 μM, absence of cAMP) | degradation by PDE [5] | preference for protein kinase A type I over type II, factor ([4]; antagonist) | Substance | inhibition of channel activation by cAMP [2]
completely stable | 14±4 | 7±1 | completely stable | even higher activation potential |  |  |  |  |  | 8-Bromoadenosine-3′,5′-cyclic boranophosphate, Rp-isomer [Rp-8-Br-cAMPB] | does not inhibit channel activation by cAMP
 |  |  |  | only moderately antagonistic | 48±11 | 34±9 | did not show any intrinsic activity | no degradation was detected | 14 | 8-Bromoadenosine-3′,5′-cyclic boranophosphate, Sp-isomer [Sp-8-Br-cAMPB] | competitive antagonist
